{"source": "patent US7888351B2", "about": "“Organic compounds” (Novartis AG, priority 2006, dated 2011)", "biological_target": "T1, human DPP-IV (Homo sapiens, UniProt P27487)", "T1 construct": "Human DPP-IV consisting of amino acids 39 to 766 followed by a C-terminal Streptavidin-tag; Streptavidin-tag (C); made in house", "T1 sequence (P27487 39-766)": "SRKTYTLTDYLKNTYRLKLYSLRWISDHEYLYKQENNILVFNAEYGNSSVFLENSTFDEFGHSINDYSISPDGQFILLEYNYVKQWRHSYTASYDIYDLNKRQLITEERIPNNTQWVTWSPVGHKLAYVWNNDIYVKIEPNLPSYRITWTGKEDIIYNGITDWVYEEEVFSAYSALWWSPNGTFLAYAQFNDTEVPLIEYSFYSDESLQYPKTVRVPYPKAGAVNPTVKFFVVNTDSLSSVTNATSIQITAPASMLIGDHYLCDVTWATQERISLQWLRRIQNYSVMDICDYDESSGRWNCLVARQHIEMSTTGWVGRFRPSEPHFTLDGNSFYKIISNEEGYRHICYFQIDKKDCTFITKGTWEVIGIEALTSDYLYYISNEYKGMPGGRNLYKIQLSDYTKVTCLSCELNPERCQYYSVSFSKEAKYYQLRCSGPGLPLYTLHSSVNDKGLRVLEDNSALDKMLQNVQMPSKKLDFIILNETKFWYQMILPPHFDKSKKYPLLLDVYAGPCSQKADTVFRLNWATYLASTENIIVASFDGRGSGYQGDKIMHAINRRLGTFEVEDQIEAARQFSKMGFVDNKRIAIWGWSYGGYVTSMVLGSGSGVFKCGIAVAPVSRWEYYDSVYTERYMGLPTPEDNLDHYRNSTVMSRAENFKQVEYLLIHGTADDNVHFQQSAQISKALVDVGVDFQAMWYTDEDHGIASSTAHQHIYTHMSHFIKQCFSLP", "experiment": "Activity assay: inhibitory activity to human DPP-IV (fluorogenic substrate H-Gly-Pro-AMC)", "assay_type": "biochemical", "details": "substrate H-Gly-Pro-AMC 10 μM, enzyme 10 pM, room temperature, 1 hour; read-out: hDPPIV IC50", "description": "Various compounds of the invention were tested for their inhibitory activity to human DPP-IV.\nHuman DPP-IV consisting of amino acids 39 to 766 followed by a C-terminal Streptavidin-tag was expressed using the baculovirus system and purified to >80% purity. The enzyme was stored in 25 mM Tris buffer, pH 9.0, containing 300 mM NaCl at −80° C. The fluorogenic substrates H-Gly-Pro-AMC was purchased from Bachem AG (Bubendorf, Switzerland). The substrate was kept as a 5 mM stock solution in DMSO at −20° C. All other chemicals were purchased from Sigma (Buchs, Switzerland).\nThe assay buffer for the DPP-IV reaction was 25 mM Tris/HCl, pH 7.5, containing 140 mM NaCl, 10 mM KCl and 0.05% (w/v) CHAPS.\nThe test compounds were dissolved in 90% DMSO/10% H2O (v/v). Serial dilutions of the compounds from 3 mM to 0.03 μM in 90% DMSO/10% H2O (v/v) followed by a 1:33.3 dilution in assay buffer was done in 96-well polypropylene plates using a CyBio Dilus 8-channel pipetter (CyBio AG, Jena, Germany) with tip change after each pipetting step. The compound solutions as well as the substrate and the enzyme solutions were transferred to the assay plates (384-well black Cliniplate; cat. no. 95040020 Labsystems Oy, Finland) by means of a CyBi-Well 96-channel pipetter (CyBio AG, Jena, Germany).\nEnzyme kinetics were measured by mixing 10 μl of a 3-fold concentrated substrate solution in assay buffer (final substrate concentration was 10 μM) with 10 μl of the corresponding compound solution. The reactions were initiated by addition of 10 μl of a 3-fold concentrated solution of the enzyme in assay buffer. Final enzyme (active site) concentrations in the assay was 10 pM for DPP-IV. Fluorescence product (AMC) formation was monitored for 1 hour at room temperature at 35 second intervals by measuring the fluorescence emission at 500 nm using an exitation wavelength of 350 nm in a TECAN Ultra fluorescence reader (TECAN, Maennedorf, Switzerland). The fluorescence in each well was excited by one flash per measurement. The Origin software package (Origin 7.5 Mircocal, Northampton, Mass., USA) was used to generate all graphs and to perform the IC50 calculations."}
{"smiles": "Cc1cnc(C(=O)NCCS(=O)(=O)N2[C@@H]3CC[C@H]2C[C@H]([C@H](N)Cc2cc(F)c(F)cc2F)C3)cn1", "note": "[Example D1, 5-Methyl-pyrazine-2-carboxylic acid (2-{3-exo-[(R)-1-amino-2-(2,4,5-trifluoro-phenyl)-ethyl]-8-aza-bicyclo[3.2.1]octane-8-sulfonyl}-ethyl)-amide]", "values": [{"measurement": "IC50", "value": 7.7, "unit": "nM"}]}
{"smiles": "N[C@H](Cc1cc(F)c(F)cc1F)[C@@H]1C[C@H]2CC[C@@H](C1)N2C(=O)CNC(=O)C1(O)CC1", "note": "[Example E7, 1-Hydroxy-cyclopropanecarboxylic acid (2-{3-exo-[(R)-1-amino-2-(2,4,5-trifluoro-phenyl)-ethyl]-8-aza-bicyclo[3.2.1]oct-8-yl}-2-oxo-ethyl)-amide]", "values": [{"measurement": "IC50", "value": 0.6, "unit": "nM"}]}
{"smiles": "C[C@](O)(C(=O)N1[C@@H]2CC[C@H]1C[C@H]([C@H](N)Cc1cc(F)c(F)cc1F)C2)c1ccccc1", "note": "[Example G4, (R)-1-{3-exo-[(R)-1-Amino-2-(2,4,5-trifluoro-phenyl)-ethyl]-8-aza-bicyclo[3.2.1]oct-8-yl}-2-hydroxy-2-phenyl-propan-1-one]", "values": [{"measurement": "IC50", "value": 10, "unit": "nM"}]}
{"smiles": "N[C@H](Cc1cc(F)c(F)cc1F)[C@@H]1C[C@H]2CC[C@@H](C1)N2C(=O)CS(=O)(=O)N1Cc2ccccc2C1", "note": "[Example H13, 1-{3-exo-[(R)-1-Amino-2-(2,4,5-trifluoro-phenyl)-ethyl]-8-aza-bicyclo[3.2.1]oct-8-yl}-2-(1,3-dihydro-isoindole-2-sulfonyl)-ethanone]", "values": [{"measurement": "IC50", "value": 7, "unit": "nM"}]}
